biological target: T1, P2X7 (Homo sapiens, UniProt Q99572); assay: IL-1β release assay in THP-1 cells (sandwich ELISA, BzATP-stimulated); assay type: cell-based; design: endogenous in cells; host or cells: THP-1 cells (PMA-differentiated, LPS-primed); conditions: LPS primed, 0.8 mM BzATP, mature IL-1β release, read-out: hTHP-1/IL-ib IC50
T1 sequence (Q99572 1-595): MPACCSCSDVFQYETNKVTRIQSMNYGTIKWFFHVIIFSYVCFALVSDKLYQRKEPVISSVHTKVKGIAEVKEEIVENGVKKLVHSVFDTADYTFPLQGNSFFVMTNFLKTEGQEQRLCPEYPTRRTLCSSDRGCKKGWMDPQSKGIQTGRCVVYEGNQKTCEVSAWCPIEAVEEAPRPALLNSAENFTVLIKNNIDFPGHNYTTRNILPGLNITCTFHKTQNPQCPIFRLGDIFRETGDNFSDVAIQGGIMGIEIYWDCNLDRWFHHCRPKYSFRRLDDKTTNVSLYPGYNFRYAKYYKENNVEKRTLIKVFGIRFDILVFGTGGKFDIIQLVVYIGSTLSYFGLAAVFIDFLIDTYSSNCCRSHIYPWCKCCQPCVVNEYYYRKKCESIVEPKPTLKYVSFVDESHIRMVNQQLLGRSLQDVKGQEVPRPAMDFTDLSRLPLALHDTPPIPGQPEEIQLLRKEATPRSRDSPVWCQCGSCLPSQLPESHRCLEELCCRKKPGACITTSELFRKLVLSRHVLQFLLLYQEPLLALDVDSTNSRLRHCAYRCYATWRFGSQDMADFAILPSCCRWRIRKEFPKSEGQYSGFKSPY
Experimental: IL-1β release assay: The activation of P2X7 by ATP leads to a fast transient activation of cells resulting in influx of Ca^2+ followed by conversion of pro-IL-1β to active IL-1β. The functional activity of P2X7 compounds was measured by the release of mature IL-1β in the culture medium of THP-1 cells, detected by sandwich ELISA. Cells were maintained in complete growth medium (RPMI 1640+10% HI-FCS+2 mM L-glutamine+1× PS). […] THP-1 cells were harvested from the flask in 50 ml by centrifugation for 3 min at 100 g. The cells were resuspended to 2×10^5 cells/ml in medium supplemented with 0.5 μM PMA and incubated. The cells were washed and resuspended to 1.5×10^5 cells/ml in medium complemented with 10 ng/ml LPS, and the cells were primed for 4 h at 37° C., 5% CO2. After addition of 20 μL of prediluted test compounds, blank, standard and control reagents, cells were incubated for a further 20 min at 37° C. and stimulated with 0.8 mM BzATP for 30 minutes. The cells were centrifuged, supernatant was collected and the presence of mature IL-1β was detected using Dual human IL-1b kit following manufacturer's instruction. The tetrahydrobenzodiazepine analogs effectively modulated the activity of P2X7 in the cells as measured by the levels of pro-inflammatory cytokine IL-1β, which is released by the activation of P2X7 receptor.

IC50 [nM]	Compound
10 to 100	COCCc1cc(C(=O)NCC2CCC(F)(F)CC2)c2c(Cl)cccn12 [Compound 37, 8-chloro-N-((4,4-difluorocyclohexyl)methyl)-3-(2-methoxyethyl) indolizine-1-carboxamide]
10 to 100	C[C@@H]1CCC[C@](O)(CNC(=O)c2cc(C3CCC3)n3cccc(Cl)c23)C1 [Compound 71, 8-chloro-3-cyclobutyl-N-(((1R,3R)-1-hydroxy-3-methylcyclohexyl)methyl) indolizine-1-carboxamide]
10 to 100	O=C(NCC1CCC(F)(F)CC1)c1cc(C2CCCO2)n2cccc(Cl)c12 (centres unmarked) [Compound 23, 8-Chloro-3-(tetrahydro-furan-2-yl)-indolizine-1-carboxylic Acid (4,4-difluoro-cyclohexyl methyl)-amide]
> 1000	COCCc1cc(C(=O)NCCC2(O)CCCC2)c2c(Cl)cccn12 [Compound 59, 8-chloro-N-(2-(1-hydroxycyclopentyl)ethyl)-3-(2-methoxyethyl)indolizine-1-carboxamide]

biological target: T1, P2X7; assay: Pore permeation assay (YO PRO dye uptake, BzATP-induced); assay type: cell-based; design: expressed in transfected cells; host or cells: HEK293; conditions: HEK293 transfected with human P2X7 receptor, BzATP 10 uM, read-out: hP2X7 IC50
Experimental: Agonist-induced pore formation was determined by measuring cellular uptake of YO PRO fluorescence dye in HEK293 transfected with human P2X7 receptor. A HEK293 cell over expressing human P2X7 was harvested using HQTase reagent to detach the cells from T75 cm flask. The harvested cells are centrifuged @1200 rpm for 5 min at room temperature. The viability of cells was determined by Trypan blue dye and the cells are plated @10,000 cell/well in 50 ul volume in a 384W BD Poly lysine coated plate and incubated overnight at 37 C. After overnight incubation, the culture medium was replaced with 35 ul/well assay buffer (5 mM KCl, 0.1 mM CaCl2, 5 mM Glucose, 10 mM HEPES buffer pH7.4 containing 125 mM NaCl. The serial dilution of compounds was performed using Bravo liquid handling instrument and the compounds were added using Bravo to the cell assay plate starting at 2.5 uM with three dilutions for 10 points. The positive control inhibitor compound was added to column 23. The plate was shaken slowly on a plate shaker for 10 seconds. The cells were incubated with the compound for 20 minutes at room temperature. After the incubation period, YO PRO dye (1 uM) along with BzATP (10 uM) were added to cells at 10 ul/well. The plate was centrifuged at 1000 rpm for 5 seconds and incubated at room temperature for 30 minutes. The uptake of YO PRO dye into the cells was measured using Envision Fluorescence plate reader instrument (Perkin Elmer).

Compound	IC50 [nM]
CC1CC(O)(CNC(=O)c2cc(C3CCC3)n3cccc(Cl)c23)CCC1(F)F (centres unmarked) [Compound 7, 8-chloro-3-cyclobutyl-N-((4,4-difluoro-1-hydroxy-3-methylcyclohexyl)methyl) indolizine-1-carboxamide]	101 to 500
O=C(NCC1CCC(F)(F)CC1)c1cc(C2(O)CCOC2)n2cccc(Cl)c12 (centres unmarked) [Compound 55, 8-chloro-N-((4,4-difluorocyclohexyl)methyl)-3-(3-hydroxytetrahydrofuran-3-yl)indolizine-1-carboxamide]	101 to 500
O=C(NCC1(O)CCCC(C(F)(F)F)C1)c1cc(C2CCOC2)n2cccc(Cl)c12 (centres unmarked) [Compound 74, 8-chloro-N-((1-hydroxy-3-(trifluoromethyl)cyclohexyl)methyl)-3-(tetrahydrofuran-3-yl)indolizine-1-carboxamide]	> 1000
O=C(NCC1CCC(F)(F)CC1)c1ccn2cccc(Cl)c12 [Compound 42]	101 to 500
COCCc1cc(C(=O)NCC2CCC(F)(F)CC2)c2c(C(F)(F)F)cccn12 [Compound 26, 3-(2-Methoxy-ethyl)-8-trifluoromethyl-indolizine-1-carboxylic Acid (4,4-difluorocyclohexylmethyl)-amide]	101 to 500
O=C(NCC1(O)CCCC(C(F)(F)F)C1)c1cc(C2CCOCC2)n2cccc(Cl)c12 (centres unmarked) [Compound 28, 8-chloro-N-((1-hydroxy-3-(trifluoromethyl)cyclohexyl)methyl)-3-(tetrahydro-2H-pyran-4-yl)indolizine-1-carboxamide]	500 to 999
CC1CC(O)(CNC(=O)c2cc(C3CCOC3)n3cccc(Cl)c23)CCC1(F)F (centres unmarked) [Compound 44, 8-chloro-N-((4,4-difluoro-1-hydroxy-3-methylcyclohexyl)methyl)-3-(tetrahydrofuran-3-yl)indolizine-1-carboxamide]	101 to 500
COCCc1cc(C(=O)NCC2(O)CCC(F)(F)CC2)c2c(C)cccn12 [Compound 46, 3-(2-Methoxy-ethyl)-8-methyl-indolizine-1-carboxylic Acid (4,4-difluoro-1-hydroxy-cyclohexylmethyl)-amide]	101 to 500
O=C(NCC1CCC(F)(F)CC1)c1cc(C2(O)COC2)n2cccc(Cl)c12 [Compound 58, 8-Chloro-3-(3-hydroxy-oxetan-3-yl)-indolizine-1-carboxylic acid (4,4-difluoro-cyclohexylmethyl)-amide]	101 to 500
COCCc1cc(C(=O)NCc2cccc(C(F)(F)F)c2Cl)c2c(Cl)cccn12 [Compound 3, 8-chloro-N-(2-chloro-3-(trifluoromethyl)benzyl)-3-(2-methoxyethyl) indolizine-1-carboxamide]	101 to 500
C[C@@H]1CCC[C@](O)(CNC(=O)c2cc(C3CCOC3)n3cccc(Cl)c23)C1 (stereo partly drawn) [Compound 38, 8-chloro-N-(((1R,3R)-1-hydroxy-3-methylcyclohexyl)methyl)-3-(tetrahydrofuran-3-yl)indolizine-1-carboxamide]	10 to 100
COCCc1cc(C(=O)NCC2(O)CCC(F)(F)CC2)c2c(C(F)(F)F)cccn12 [Compound 49, 3-(2-Methoxy-ethyl)-8-trifluoromethyl-indolizine-1-carboxylic Acid (4,4-difluoro-1-hydroxy cyclohexylmethyl)-amide]	101 to 500
O=C(NCC1(O)CCCC(F)(F)C1)c1cc(C2CCC2)n2cccc(Cl)c12 (centres unmarked) [Compound 20, 8-chloro-3-cyclobutyl-N-((3,3-difluoro-1-hydroxycyclohexyl)methyl) indolizine-1-carboxamide]	10 to 100
COCCc1cc(C(=O)NCC2CCC(F)(F)CC2)c2c(C)cccn12 [Compound 25, 3-(2-Methoxy-ethyl)-8-methyl-indolizine-1-carboxylic Acid (4,4-difluoro-cyclohexylmethyl)-amide]	101 to 500
CCOCCc1cc(C(=O)NCC2CCC(F)(F)CC2)c2c(Cl)cccn12 [Compound 19, 8-Chloro-3-(2-ethoxy-ethyl)-indolizine-1-carboxylic Acid (4,4-difluoro-cyclohexylmethyl)-amide]	101 to 500
O=C(NCC1(O)CCCC(C(F)(F)F)C1)c1cc(C2CCC2)n2cccc(Cl)c12 (centres unmarked) [Compound 4, 8-chloro-3-cyclobutyl-N-((1-hydroxy-3-(trifluoromethyl)cyclohexyl)methyl) indolizine-1-carboxamide]	> 1000
CC(CO)c1cc(C(=O)NCC2CCC(F)(F)CC2)c2c(Cl)cccn12 (centres unmarked) [Compound 75, 8-Chloro-3-(2-hydroxy-1-methyl-ethyl)-indolizine-1-carboxylic Acid (4,4-difluoro-cyclohexylmethyl)-amide]	10 to 100

Other lines, results leading:

IC50 [nM]	Compound
10 to 100	O=C(NCC1(O)CCC(F)(F)CC1)c1cc(C2CCOCC2)n2cccc(Cl)c12 [Compound 56, 8-chloro-N-((4,4-difluoro-1-hydroxycyclohexyl)methyl)-3-(tetrahydro-2H-pyran-4-yl)indolizine-1-carboxamide]
10 to 100	COCCc1cc(C(=O)NCC2CCC(F)(F)CC2)c2c(Cl)cccn12 [Compound 37, 8-chloro-N-((4,4-difluorocyclohexyl)methyl)-3-(2-methoxyethyl) indolizine-1-carboxamide]
10 to 100	C[C@@H]1CCC[C@](O)(CNC(=O)c2cc(C3CCC3)n3cccc(Cl)c23)C1 [Compound 71, 8-chloro-3-cyclobutyl-N-(((1R,3R)-1-hydroxy-3-methylcyclohexyl)methyl) indolizine-1-carboxamide]
10 to 100	O=C(NCC1CCC(F)(F)CC1)c1cc(C2CCCO2)n2cccc(Cl)c12 (centres unmarked) [Compound 23, 8-Chloro-3-(tetrahydro-furan-2-yl)-indolizine-1-carboxylic Acid (4,4-difluoro-cyclohexyl methyl)-amide]
10 to 100	O=C(NCC1CCC(F)(F)CC1)c1cc(C2CCOCC2)n2cccc(Cl)c12 [Compound 33, 8-chloro-N-((4,4-difluorocyclohexyl)methyl)-3-(tetrahydro-2H-pyran-4-yl)indolizine-1-carboxamide]
10 to 100	C[C@@H]1CCC[C@](O)(CNC(=O)c2cc(C3CCOCC3)n3cccc(Cl)c23)C1 [Compound 27, 8-chloro-N-(((1R,3R)-1-hydroxy-3-methylcyclohexyl)methyl)-3-(tetrahydro-2H-pyran-4-yl)indolizine-1-carboxamide]
10 to 100	O=C(NCC1(O)CCCC(F)(F)C1)c1cc(CCO)n2cccc(Cl)c12 (centres unmarked) [Compound 68, 8-Chloro-3-(2-hydroxy-ethyl)-indolizine-1-carboxylic Acid (3,3-difluoro-1-hydroxy-cyclohexylmethyl)-amide]
10 to 100	O=C(NCC1CCC(F)(F)CC1)c1cc(CCF)n2cccc(Cl)c12 [Compound 34, 8-Chloro-3-(2-fluoro-ethyl)-indolizine-1-carboxylic Acid (4,4-difluoro-cyclohexylmethyl)-amide]

Reference: patent publication US9931324B2, “Indolizine derivatives and their use in neurodegenerative diseases” (Merck Patent GmbH, priority 2014, dated 2018)
